According to patent publication EP4722201A1, “3-PHENYLISOXAZOLINE-5-CARBOXAMIDE COMPOUND, AND PREPARATION METHOD THEREFOR, HERBICIDAL COMPOSITION THEREOF AND USE THEREOF” (Jiangsu Flag Chemical Industry Co., Ltd, priority 2023, dated 2024):

Legend:
Type in all cases: in vivo
Alopecurus myosuroides = experiment: Indoor herbicide activity determination, Seed Treatment; pre-emergence (soil spray); details: Dosage 240 g a.i./ha
In short: (§1)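 Herbicide was applied to soil before weed emergence, 24 h after sowing, by tower spraying. Plants grew at constant temperature with illumination, and fresh weight compared with untreated pots gave % inhibition after 21 days.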

Lolium multiflorum = experiment: as above; details: Dosage 240 g a.i./ha
In short: as §1

Leptochloa chinensis = experiment: as above; details: Dosage 240 g a.i./ha
In short: as §1

Alopecurus japonicus = experiment: as above; details: Dosage 240 g a.i./ha
In short: as §1

Eleusine indica = experiment: as above; details: Dosage 240 g a.i./ha
In short: as §1

Eclipta prostrata = experiment: Indoor herbicide activity determination, post-emergence (stem and leaf spray at 2-4 leaf stage); details: 504 h, 60 g a.i./ha, determined 21 days later, read-out: Inhibition rate of fresh weight, Eclipta prostrata
Description: (§2) The testing method for herbicide activity of the compound of the present invention was as follows:
(§3) Post-emergence: an appropriate quantity of seeds of gramineous weeds (Echinochloa crusgalli, Eleusine indica, Digitaria sanguinalis, Alopecurus japonicus, Beckmannia syzigachne, Leptochloa chinensis, Polypogon fugax, Alopecurus aequalis, Lolium multiflorum, Poa annua, Aegilops tauschii, Avena fatua, Alopecurus myosuroides, Alopecurus japonicus and Alopecurus aequalis), broad-leaved weeds (Eclipta prostrata, Amaranthus retroflexus, Rorippa indica, Malachium aquaticum, Veronica polita, Conyza canadensis, Sesbania cannabina, Sagittariatrifolia and Schoenoplectiella juncoides), and Cyperus iria were sown in plastic pots having a diameter of 7 cm and holes at the bottom and filled with nutrient soil (sandy soil, pH 6.1, organic matter 1%) respectively, the seeds were covered with an appropriate amount of soil after being sown, then the soil was wetted with water from the bottom, the seeds were cultured in a constant-temperature illuminated culture room until a 2-4 leaf stage, and stems and leaves underwent spray treatment. After the treatment, the test materials were placed in a laboratory and cultured in the constant-temperature illuminated culture room after the liquid was naturally dry in the shade, and results were determined 21 days later. Inhibition rate of fresh weight % = (1−(fresh weight of treated plants)/(fresh weight of control plants)) × 100% [formula]

Cyperus iria = experiment: as above; details: 504 h, 60 g a.i./ha, determined 21 days later, read-out: Inhibition rate of fresh weight, Cyperus iria
Description: as §2, §3

Digitaria sanguinalis = experiment: as above; details: 504 h, 60 g a.i./ha, determined 21 days later, read-out: Inhibition rate of fresh weight, Digitaria sanguinalis
Description: as §2, §3

Row | SMILES | Herbicidal activities, Alopecurus myosuroides (inhibition rate class) (Alopecurus myosuroides) | Herbicidal activities, Lolium multiflorum (inhibition rate class) (Lolium multiflorum) | Herbicidal activities, Leptochloa chinensis (inhibition rate class) (Leptochloa chinensis) | Herbicidal activities, Alopecurus japonicus (inhibition rate class) (Alopecurus japonicus) | Herbicidal activities, Eleusine indica (inhibition rate class) (Eleusine indica) | inhibition at 60 g/ha (Eclipta prostrata) [%] | inhibition at 60 g/ha (Cyperus iria) [%] | inhibition at 60 g/ha (Digitaria sanguinalis) [%]
1 | C=CC1(C(=O)N[C@H]2C[C@@H](C(=O)O)C2)CC(c2cc(F)cc(C(F)(F)F)c2)=NO1 (mixture of isomers) [I-49] | A (A indicates that the inhibition rate was greater than or equal to 80% to 100%) | A (A indicates that the inhibition rate was greater than or equal to 80% to 100%) | A (A indicates that the inhibition rate was greater than or equal to 80% to 100%) | A (A indicates that the inhibition rate was greater than or equal to 80% to 100%) | A (A indicates that the inhibition rate was greater than or equal to 80% to 100%) | 60 to 80 | 80 to 100 | 60 to 80
2 | COC(=O)[C@H]1C[C@@H](NC(=O)C2(C)CC(c3cc(F)cc(OC(F)(F)F)c3)=NO2)C1 (mixture of isomers) [I-159] | A (A indicates that the inhibition rate was greater than or equal to 80% to 100%) | A (A indicates that the inhibition rate was greater than or equal to 80% to 100%) | A (A indicates that the inhibition rate was greater than or equal to 80% to 100%) | A (A indicates that the inhibition rate was greater than or equal to 80% to 100%) | A (A indicates that the inhibition rate was greater than or equal to 80% to 100%) | 60 to 80 | 60 to 80 | 80 to 100
3 | COC(=O)[C@H]1C[C@@H](NC(=O)C2(C(F)(F)F)CC(c3cc(F)cc(Cl)c3)=NO2)C1 (mixture of isomers) [I-225] | A (A indicates that the inhibition rate was greater than or equal to 80% to 100%) | A (A indicates that the inhibition rate was greater than or equal to 80% to 100%) | A (A indicates that the inhibition rate was greater than or equal to 80% to 100%) | A (A indicates that the inhibition rate was greater than or equal to 80% to 100%) | A (A indicates that the inhibition rate was greater than or equal to 80% to 100%) | 60 to 80 | 80 to 100 | 80 to 100
4 | O=C(N[C@H]1C[C@@H](C(=O)O)C1)C1(C(F)(F)F)CC(c2cc(Cl)cc(Cl)c2)=NO1 (relative stereo) [I-229] | A (A indicates that the inhibition rate was greater than or equal to 80% to 100%) | A (A indicates that the inhibition rate was greater than or equal to 80% to 100%) | A (A indicates that the inhibition rate was greater than or equal to 80% to 100%) | A (A indicates that the inhibition rate was greater than or equal to 80% to 100%) | A (A indicates that the inhibition rate was greater than or equal to 80% to 100%) | 60 to 80 | 80 to 100 | 80 to 100
5 | O=C(N[C@H]1C[C@@H](C(=O)O)C1)C1(C(F)(F)F)CC(c2cc(F)cc(C(F)(F)F)c2)=NO1 (relative stereo) [I-241] | A (A indicates that the inhibition rate was greater than or equal to 80% to 100%) | A (A indicates that the inhibition rate was greater than or equal to 80% to 100%) | A (A indicates that the inhibition rate was greater than or equal to 80% to 100%) | A (A indicates that the inhibition rate was greater than or equal to 80% to 100%) | A (A indicates that the inhibition rate was greater than or equal to 80% to 100%) | 60 to 80 | 80 to 100 | 80 to 100
6 | C=CC1(C(=O)N[C@H]2C[C@@H](C(=O)O)C2)CC(c2cc(F)cc(OC(F)(F)F)c2)=NO1 (mixture of isomers) [I-57] | A (A indicates that the inhibition rate was greater than or equal to 80% to 100%) | A (A indicates that the inhibition rate was greater than or equal to 80% to 100%) | A (A indicates that the inhibition rate was greater than or equal to 80% to 100%) | A (A indicates that the inhibition rate was greater than or equal to 80% to 100%) | A (A indicates that the inhibition rate was greater than or equal to 80% to 100%) | 60 to 80 | 80 to 100 | 80 to 100
7 | C=CC1(C(=O)N[C@H]2C[C@@H](C(=O)OC)C2)CC(c2cc(Cl)cc(Cl)c2)=NO1 (mixture of isomers) [I-39] | A (A indicates that the inhibition rate was greater than or equal to 80% to 100%) | A (A indicates that the inhibition rate was greater than or equal to 80% to 100%) | A (A indicates that the inhibition rate was greater than or equal to 80% to 100%) | A (A indicates that the inhibition rate was greater than or equal to 80% to 100%) | A (A indicates that the inhibition rate was greater than or equal to 80% to 100%) | 60 to 80 | 80 to 100 | 80 to 100
8 | C=CC1(C(=O)N[C@H]2C[C@@H](C(=O)O)C2)CC(c2cc(F)cc(Cl)c2)=NO1 (mixture of isomers) [I-27] | A (A indicates that the inhibition rate was greater than or equal to 80% to 100%) | A (A indicates that the inhibition rate was greater than or equal to 80% to 100%) | A (A indicates that the inhibition rate was greater than or equal to 80% to 100%) | A (A indicates that the inhibition rate was greater than or equal to 80% to 100%) | A (A indicates that the inhibition rate was greater than or equal to 80% to 100%) | 40 to 60 | 80 to 100 | 80 to 100
9 | COC(=O)[C@H]1C[C@@H](NC(=O)C2(C(F)(F)F)CC(c3cccc(F)c3)=NO2)C1 (relative stereo) [I-270] | A (A indicates that the inhibition rate was greater than or equal to 80% to 100%) | A (A indicates that the inhibition rate was greater than or equal to 80% to 100%) | A (A indicates that the inhibition rate was greater than or equal to 80% to 100%) | A (A indicates that the inhibition rate was greater than or equal to 80% to 100%) | A (A indicates that the inhibition rate was greater than or equal to 80% to 100%) | 40 to 60 | 80 to 100 | 80 to 100
10 | CC1(C(=O)N[C@H]2C[C@@H](C(=O)O)C2)CC(c2cc(F)cc(F)c2)=NO1 (mixture of isomers) [I-111] | A (A indicates that the inhibition rate was greater than or equal to 80% to 100%) | A (A indicates that the inhibition rate was greater than or equal to 80% to 100%) | A (A indicates that the inhibition rate was greater than or equal to 80% to 100%) | A (A indicates that the inhibition rate was greater than or equal to 80% to 100%) | A (A indicates that the inhibition rate was greater than or equal to 80% to 100%) | 60 to 80 | 80 to 100 | 80 to 100
